{"source": "patent US20110286979A1", "about": "“CHEMOSENSITIZATION BY BI-FUNCTIONAL SMALL HAIRPIN RNA (bi-shRNA)” (GRADALIS, INC., priority 2010, published 2011)", "key": {"SK-Mel-28 melanoma cells": {"tested_on": "SK-Mel-28 melanoma cells", "test": "BrdU Cell Proliferation Assay, docetaxel dose response with/without shRNA plasmid electroporation", "settings": "Homo sapiens", "protocol": "Cells are cultured and grown to sufficient amount for the studies. The shRNA plasmid transfection was performed by electroporation, in the dose of 50 ug/10 million cell. Finally the different ingredients were placed in 96-well plates (media, transfected cells with and without docetaxel, buffer) and incubated at 37° C. with 5% CO2. Growth inhibition was studied using the BrdU Cell Proliferation Assay kit at 24, 48, and 72 hrs.\nThe cell growth inhibition for each of treatment is calculated from direct OD reading. The % growth inhibition is calculated as:\n% growth inhibition of control=ODtreated−ODtreatedNoBrdUcontrol/ODuntreated−ODuntreatedNoBrdUcontrol\nwherein, ODtreated: OD reading from the shRNA plasmid and/or docetaxel treated reactant; ODtreatedNoBrdUcontrol: OD reading from the shRNA plasmid and/or docetaxel treated reactant, but without BrdU labeling; ODuntreated: OD reading from reactants without shRNA plasmid or docetaxel treatment; ODuntreatedNoBrdUcontrol: OD reading from reactants without shRNA plasmid or docetaxel treatment, and without BrdU labeling.\nThe % growth inhibition is calculated and plotted against treatment dose of docetaxel. From the plotted % growth inhibition IC50 is determined from curve for shRNA with/without docetaxel, as well as with docetaxel in different concentrations. IC50—half maximal inhibitory concentration, is a measure of the effectiveness of a compound (docetaxel for this study) in inhibiting biological function (cell growth for this study)."}, "[1]": {"tested_on": "CCL-247 colorectal cancer cells", "test": "BrdU Cell Proliferation Assay, docetaxel dose response with/without shRNA plasmid electroporation", "format": "cell-based, human", "settings": "for IC50: Homo sapiens", "method": "Docetaxel storage stock was made in 10 mM, with DMSO as solvent in a biological safety cabinet for sterility purposes. Docetaxel solution was stored in 4° C. fridge away from direct light. For each experiment, docetaxel storage solution was brought to room temperature to thaw, about 30 min before usage. A 5 uM working solution was made and further diluted 1:50. To 9.8 ml complete CCL-247 media, 0.2 ml 5 uM working solution was added so that 10 ul of the solution into final volume of 100 ul will make 10 nM. The 10 nM solution was serially diluted to make 5 nM, 2.5 nM, 1.25 nM, 0.625 nM, and 0.3124 nM.\nThe CCL-247 media comprises HyClone McCoy's 5A medium 500 ml, FBS 50 ml, and L-Glutamine 10 ml. Under the biological cabinet, the above solutions were mixed into McCoy's 5A medium 500 ml bottle. The mixture was poured at the top part of filter, a vacuum pump was turned on to filter the mixed medium through. The media was stored at 4° C. after use.\nThe % growth inhibition is calculated as: […]"}}, "note": "Read-outs that look alike come from different tables or passages of the source."}
{"smiles": "CC(=O)O[C@@]12CO[C@@H]1C[C@H](O)[C@@]1(C)C(=O)[C@H](O)C3=C(C)[C@@H](OC(=O)[C@H](O)[C@@H](NC(=O)OC(C)(C)C)c4ccccc4)C[C@@](O)([C@@H](OC(=O)c4ccccc4)[C@H]21)C3(C)C", "note": "[Docetaxel, docetaxel]", "values": [{"measurement": "IC50", "setting": "SK-Mel-28 melanoma cells; SK-MEL-28, 48 h, read-out: Docetaxel IC50 (mean ± SD), SK-Mel-28, + pbi-shRNA^STMN1, 48 h", "result": 0.1, "unit": "nM"}, {"measurement": "IC50", "setting": "SK-Mel-28 melanoma cells; SK-MEL-28, 48 h, read-out: Docetaxel IC50 (mean ± SD), SK-Mel-28, + scrambled control, 48 h", "result": "1 ± 0.2", "unit": "nM"}, {"measurement": "IC50", "setting": "SK-Mel-28 melanoma cells; SK-MEL-28, 48 h, read-out: Docetaxel IC50 (mean ± SD), SK-Mel-28, no ShRNA, 48 h", "result": "1.7 ± 2", "unit": "nM"}, {"measurement": "IC50", "setting": "SK-Mel-28 melanoma cells; SK-MEL-28, 72 h, read-out: Docetaxel IC50 (mean ± SD), SK-Mel-28, + pbi-shRNA^STMN1, 72 h", "result": "0.2 ± 0.1", "unit": "nM"}, {"measurement": "IC50", "setting": "SK-Mel-28 melanoma cells; SK-MEL-28, 72 h, read-out: Docetaxel IC50 (mean ± SD), SK-Mel-28, + scrambled control, 72 h", "result": "0.9 ± 0.2", "unit": "nM"}, {"measurement": "IC50", "setting": "SK-Mel-28 melanoma cells; SK-MEL-28, 72 h, read-out: Docetaxel IC50 (mean ± SD), SK-Mel-28, no ShRNA, 72 h", "result": "0.8 ± 0.2", "unit": "nM"}, {"measurement": "IC50", "setting": "SK-Mel-28 melanoma cells; SK-MEL-28, read-out: IC50 of docetaxel, SK-Mel-28, with STMN1 knockdown (bi-shRNA^STMN1), BrdU, n=3", "result": 0.1, "unit": "nM"}, {"measurement": "IC50", "setting": "SK-Mel-28 melanoma cells; SK-MEL-28, read-out: IC50 of docetaxel, SK-Mel-28, without STMN1 knockdown, BrdU, n=3", "result": "1.7 ± 0.2", "unit": "nM"}, {"measurement": "cell growth compared to control", "setting": "[1]; CCL-247, docetaxel alone 1.25 nM, 48 hrs", "result": "about 70%"}, {"measurement": "IC50", "setting": "[1]; 48 h, CCL-247, + pbi-shRNA^STMN1, 48 h, read-out: Docetaxel IC50 (mean ± SD)", "result": "0.6 ± 0.4", "unit": "nM"}, {"measurement": "IC50", "setting": "[1]; 48 h, CCL-247, no ShRNA, 48 h, read-out: Docetaxel IC50 (mean ± SD)", "result": "1.8 ± 0.2", "unit": "nM"}, {"measurement": "IC50", "setting": "[1]; 72 h, CCL-247, + pbi-shRNA^STMN1, 72 h, read-out: Docetaxel IC50 (mean ± SD)", "result": "0.6 ± 0.4", "unit": "nM"}, {"measurement": "IC50", "setting": "[1]; 72 h, CCL-247, + scrambled control, 72 h, read-out: Docetaxel IC50 (mean ± SD)", "result": "1 ± 0.6", "unit": "nM"}, {"measurement": "IC50", "setting": "[1]; 72 h, CCL-247, no ShRNA, 72 h, read-out: Docetaxel IC50 (mean ± SD)", "result": "1 ± 0.4", "unit": "nM"}, {"measurement": "IC50", "setting": "[1]; CCL-247, with STMN1 knockdown (bi-shRNA^STMN1), BrdU, n=3, read-out: IC50 of docetaxel", "result": "0.6 ± 0.4", "unit": "nM"}, {"measurement": "IC50", "setting": "[1]; CCL-247, without STMN1 knockdown, BrdU, n=3, read-out: IC50 of docetaxel", "result": "1.8 ± 0.2", "unit": "nM"}]}
